# Source: PMC7356157, “Shorter Antibacterial Peptide Having High Selectivity for E. coli Membranes and Low Potential for Inducing Resistance” (Microorganisms, 2020)
# Read-outs that look alike come from different tables or passages of the source. No end group written: not given here.
# How the values were obtained:
# E. coli [1] = experiment: microbe, parasite or virus in culture; conditions: Escherichia coli, read-out: Individual gentamicin MIC
# Description: (§5) The checkerboard method was used for evaluating peptide antibacterial activity in combination with antibiotics [43]. […] Absorbance was measured at 620 nm and individual peptide and antibiotic MIC and combined MIC were obtained. […] The fractional inhibitory concentration index (FICI) was then calculated as the sum of peptide FIC + antibiotic FIC. A ≤ 0.5 FICI indicated synergy, 0.5 to ≤4 FICI indifference, and >4 FICI antagonism [45].
# (§6) The results were interpreted by taking the lowest checkerboard FIC index (previously reported method 3) [44].
# [2] = system: E. coli N°40 (clinical isolate); conditions: broth microdilution; for MIC E. coli N°40: clinical isolate from blood
# Description: (§1) The standard broth microdilution method was used for determining the peptides’ MIC [41]. […] Bacteria in Müller–Hinton broth (MHB) were used as negative control. […] The MIC was determined as the lowest peptide concentration at which bacterial growth was not detected.
# (§2) Approximately 50 bacterial samples were then collected from E. coli-infected patients for evaluating activity of the peptides against some clinical isolates. These samples were identified and biochemically and metabolically characterised using the VITEK-2 equipment. Isolates were profiled regarding their resistance or susceptibility to a panel of conventionally used antibiotics.
# [3] = system: E. coli N°44 (clinical isolate); conditions: broth microdilution; for MIC E. coli N°44: clinical isolate from blood, ESBL (+)
# Description: as §1, §2
# [4] = system: E. coli N°4 (clinical isolate); conditions: broth microdilution; for MIC E. coli N°4: clinical isolate from urine
# Description: as §1, §2
# [5] = system: E. coli clinical isolate 44; experiment: Resistance profile of clinical isolate (VITEK-2); assay type: cell-based; conditions: Escherichia coli, isolate from blood
# From the text: as §2
# [6] = system: E. coli clinical isolate 4; experiment: Resistance profile of clinical isolate (VITEK-2); assay type: cell-based; conditions: Escherichia coli, isolate from urine
# From the text: as §2
# [7] = system: E. coli clinical isolate 40; experiment: Resistance profile of clinical isolate (VITEK-2); assay type: cell-based; conditions: Escherichia coli, isolate from blood
# From the text: as §2
# [8] = system: E. coli 35218 (ampicillin-resistant ATCC 35218 strain); assay type: cell-based; conditions: broth microdilution
# [9] = system: E. coli N°44 (clinical isolate); assay type: cell-based
# Description: (§3) Bactericidal activity was evaluated by sowing an aliquot of Luria Bertani agar (LBA) in the wells where no growth had been detected in the MIC assay.
# Approximately 50 bacterial samples were then collected from E. coli-infected patients for evaluating activity of the peptides against some clinical isolates. These samples were identified and biochemically and metabolically characterised using the VITEK-2 equipment. Isolates were profiled regarding their resistance or susceptibility to a panel of conventionally used antibiotics. Three E. coli isolates having different resistance profiles were then selected following such characterisation (Appendix A): • Isolate 4 (from urine): extended spectrum beta-lactamase (ESBL) (-), resistant to ampicillin, quinolones and co-trimoxazole. • Isolate 40 (from blood): ESBL (-), resistant to ampicillin, 1st-generation cephalosporins and co-trimoxazole. • Isolate 44 (from blood): ESBL (+), resistant to aminoglycosides, quinolones, β-lactams (including 1st-, 3rd- and 4th-generation cephalosporins).
# E. coli ATCC 25922 [10] = experiment: Potential for inducing bacterial resistance (serial subculture at 0.5 MIC); assay type: cell-based; conditions: repeated treatment with 0.5× MIC, 18 days, two independent assays in duplicate
# Description: The MIC against this subculture was then determined by micro-dilution in broth. […] Two independent assays were carried out in duplicate. MIC changes were plotted for each subculture (day of assay).
# P. aeruginosa 27853 [11] = experiment: Bactericidal activity (MBC); assay type: cell-based; conditions: LBA, 18 h, 37 °C
# Description: as §3
# E. coli ML35 43827 [12] = experiment: Bactericidal activity (MBC); assay type: cell-based
# Description: as §3
# E. coli ATCC 25922 [13] = experiment: Bactericidal activity (MBC); assay type: cell-based; conditions: aliquots of no-growth MIC wells on LBA, 18 h, 37 °C; kills 99.9%
# Description: as §3
# E. coli ATCC 11775 = assay type: cell-based; conditions: broth microdilution
# E. coli ML35 43827 [14] = assay type: cell-based; conditions: broth microdilution
# [15] = system: E. coli (ATCC strains and clinical isolates); experiment: MIC summarised over several E. coli strains; assay type: cell-based
# Description: The standard broth microdilution method was used for determining the peptides’ MIC [41]. Briefly, serial peptide dilutions (100 to 0.2 µM concentration) were incubated in 96-well plates at 100 μL/well final volume for 18 h at 37 °C in a damp chamber with ~5 × 10^5 CFU/mL bacterial inoculum (calculated from the calibration curve equation previously obtained for each strain (Figure S1)). Optical density (OD) was measured at 620 nm after 18 h on a microplate reader. Bacteria in Müller–Hinton broth (MHB) were used as negative control. […] The MIC was determined as the lowest peptide concentration at which bacterial growth was not detected.
# E. coli [16] = system: E. coli
# Description: as §5, §6
# P. aeruginosa 27853 [17] = experiment: MIC by broth microdilution; assay type: cell-based; conditions: MHB, 18 h, 37 °C
# E. coli ATCC 25922 [18] = assay type: cell-based; conditions: for MIC E. coli 25922: broth microdilution, MHB, ~5 × 10^5 CFU/mL, 18 h, 37 °C, OD 620 nm, 100 to 0.2 µM; for MIC against E. coli 25922, MHB: no serum
# E. coli [19] = system: E. coli; remark: listed apart in the source
# Description: as §5, §6
# [20] = system: human red blood cells (hRBC); experiment: Haemolytic activity (MHC); assay type: cell-based; conditions: for MHC (minimum haemolytic concentration): 5% v/v hRBC in 1X PBS, 200–0.39 µM, 1 h, 37 °C, absorbance 560 nm
# Description: A haemolytic activity assay was used for determining whether peptides acted on hRBC membrane by calculating the minimum haemolytic concentration (MHC). Briefly, 100 µL serial dilutions of peptides were incubated in a 96-well plate with an equal volume of a fresh hRBC suspension at 5% v/v in 1X PBS (200–0.39 µM final peptide concentrations). The samples were spun at 1000× g for 5 min after having been incubated at 37 °C for 1 h and a Multiskan spectrometer (Thermo Fisher) was used for measuring 100 µL supernatant absorbance at 560 nm. Treated hRBC absorbance 0.1% Triton X-100 or 100% haemolysis was used as positive control.
# E. coli 35218 = assay type: cell-based
# Description: as §3
# E. coli 25922 = experiment: Antibacterial activity in the presence of human sera; assay type: cell-based; conditions: for MIC against E. coli 25922, Serum (without Pre-Incubation): peptide diluted in fresh human sera (100%), then inoculum in MHB ~5 × 10^5 CFU/mL, 18 h, 37 °C
# Description: The second assay involved peptide dilution in fresh human sera (100%) pre-incubated for 6 h at 37 °C in a humid chamber before putting them in contact with the bacterial inoculum diluted in MHB (~5 × 10^5 CFU/mL). The assay was incubated and read as mentioned in the microdilution section.
# E. coli ML35 = experiment: Permeabilising internal membrane (ONPG); assay type: cell-based; conditions: 1× MIC; for permeabilisation of E. coli internal membrane: ONPG, 405 nm, 4.5 h
# HeLa human cell line = conditions: cited from earlier work
# From the text: (§4) Its therapeutic index (TI) calculated for E. coli ML35 is 0.045, indicating low selectivity [[ ...
# [21] = system: human red blood cells (hRBC); conditions: cited from earlier work
# From the text: as §4
# HepG2 human cell line = conditions: cited from earlier work
# From the text: as §4
Compound,MIC E. coli 35218 [8],MBC E. coli N°44 [9],fold increase in MIC over initial MIC (E. coli ATCC 25922 [10]),MBC E. coli ML35 43827 (E. coli ML35 43827 [12]),MBC E. coli 25922 (E. coli ATCC 25922 [13]),MIC E. coli 11775 (E. coli ATCC 11775),MIC E. coli N°40 [2],MIC E. coli N°44 [3],MIC E. coli N°4 [4],MIC E. coli ML35 43827 (E. coli ML35 43827 [14]),MIC P. aeruginosa 27853 (P. aeruginosa 27853 [17]),MIC E. coli 25922 (E. coli ATCC 25922 [18]),"MIC against E. coli 25922, MHB (E. coli ATCC 25922 [18])",MHC (minimum haemolytic concentration) [20],MBC E. coli 35218 (E. coli 35218),"MIC against E. coli 25922, Serum (without Pre-Incubation) (E. coli 25922)",permeabilisation of E. coli internal membrane (E. coli ML35),also measured
"CNC(C)C1CCC(N)C(OC2C(N)CC(N)C(OC3OCC(C)(O)C(NC)C3O)C2O)O1 (centres unmarked) [Gentamicin, gentamicin]",–,–,–,–,–,–,–,–,–,–,–,–,–,–,–,–,–,MIC (E. coli [1]): 0.5 µg/mL; MIC E. coli N°40 (antibiotics) ([2]; clinical isolate): 1 µg/mL; MIC E. coli N°44 (antibiotics) ([3]; clinical isolate): >16 µg/mL; MIC E. coli N°4 (antibiotics) ([4]; clinical isolate): 2 µg/mL; MIC [5]: ≥ 16 µg/mL; MIC [6]: ≤ 1 µg/mL; MIC [7]: ≤ 1 µg/mL
RKKKMKKALQYIKLLKE-NH2 [Peptide 35409-1],6 µM,100 µM,eight-fold,3 µM,25 µM,>100 µM,25 µM,12.5 µM,>100 µM,3 µM,100 µM,25 µM,25 µM,>200 µM,6 µM,12.5 µM,did act on E. coli internal membrane,"MBC P. aeruginosa 27853 (P. aeruginosa 27853 [11]): 100 µM; average MIC against E. coli [15]: 14.3 µM; Interpretation (E. coli [16]; peptide + ciprofloxacin): Indifference; x MIC Combination, Peptide (E. coli [16]; with ciprofloxacin, fraction of individual peptide MIC (individual = 1)): 1/1 x MIC; Interpretation (E. coli [19]; peptide + gentamicin): Indifference; x MIC Combination, Peptide (E. coli [19]; with gentamicin, fraction of individual peptide MIC (individual = 1)): 1/0.25 x MIC; haemolysis relative to average MIC ([20]; concentration as multiple of average MIC 14.3 µM): did not induce haemolysis at 14-fold higher concentrations; MIC against E. coli 25922, Serum (6 h Pre-Incubation) (E. coli 25922; peptide in fresh human sera (100%) pre-incubated 6 h at 37 °C before inoculum, stability read-out): 50 µM; time at which maximum permeabilisation was reached (E. coli ML35; 1X PBS, 1.5 mM ONPG, 37 °C, 405 nm every 30 min for 4.5 h, triplicate): 1.5 h"
"RYRRKKKMKKALQYIKLLKE-NH2 [Peptide 35409, reference compound]",6 µM,–,–,25 µM,50 µM,>100 µM,–,–,–,25 µM,>100 µM,25 µM,25 µM,1.56 µM,6 µM,25 µM,–,cytotoxic activity against HeLa (HeLa human cell line): did not have cytotoxic activity; MHC against human red blood cells [21]: 1.5 µM; cytotoxic activity against HepG2 (HepG2 human cell line): did not have cytotoxic activity
KMKKALQYIKLLKE-NH2 [Peptide 35409-4],25 µM,> 100 µM,–,50 µM,100 µM,>100 µM,>100 µM,100 µM,>100 µM,25 µM,>100 µM,100 µM,100 µM,>200 µM,50 µM,100 µM,–,"FIC Index (E. coli [16]; peptide + ciprofloxacin, lowest checkerboard FIC index (method 3)): 3; FIC P (peptide) (E. coli [16]; with ciprofloxacin): 1; FIC Index (E. coli [19]; peptide + gentamicin, lowest checkerboard FIC index (method 3)): 0.75; FIC P (peptide) (E. coli [19]; with gentamicin): 0.25"
"CN(C)[C@@H]1C(O)=C(C(N)=O)C(=O)[C@@]2(O)C(O)=C3C(=O)c4c(O)cccc4[C@@](C)(O)[C@H]3C[C@@H]12 [Tetracycline, tetracycline, reference compound]",–,–,128 fold,–,–,–,–,–,–,–,–,–,–,–,–,–,–,–
"cecropin P1 (SWLSKTAKKLENSAKKRISEGIAIAIQGGPR; UniProt P14661 14-44, looked up) [positive permeabilisation control peptide, reference compound]",–,–,–,–,–,–,–,–,–,–,–,–,–,–,–,–,capable of inducing a high rate of permeabilisation for the first 30 min of incubation,–
